# Article PMC8878721, “Screening of TNFR1 Binding Peptides from Deinagkistrodon acutus Venom through Phage Display” (Toxins, 2022)
# What was measured:
# [1] = test system: pro-inflammatory cytokines; details: snake venom extracts; ref [2],[3],[4]; cited from earlier work
# From the text: Snake venoms have been used as traditional Chinese medicines for hundreds of years, and they have a positive effect on autoimmune inflammatory diseases such as rheumatoid arthritis. However, their active, effective ingredients and their mechanisms of action are not fully understood yet. Studies have shown that snake venom is a mixture of proteins and peptides with various biological activities, including anti-tumor, anti-inflammatory, anti-stroke, and analgesic activities. For example, snake venom extracts such as Cathelicidin-BF and Cathelicidin-CATH can inhibit pro-inflammatory cytokin ...
# [2] = Dissolution test of DAvp-1; assay type: physicochemical
# Method: DAvp-1, which appeared in the white lyophilized powder, was synthesized following the solid phase peptide synthesis (SPPS) Fmoc protocol, and Mass Spectrometer (MS) and HPLC were used for quantitative and qualitative verification. A purity of 95.346% was determined with the HPLC methodology (Figure 3A). The mass-to-charge ratios of [M+8H]^8+, [M+7H]^7+, [M+6H]^6+, and [M+5H]^5+ were 594.5, 679.3, 792.3, and 950.5, respectively, and the highest peak of [M+5H]^5+ was selected to calculate the molecular weight (MW). The formula is (1) MW=m/z×C−C(1) where MW is the molecular weight, m/z is the mass-to-charge ratio, and C is the charge.
# Homologous modeling has been developed for predicting the 3D structure of proteins and peptides originating from various organisms, and this most accurate modeling method was widely used in structural biology. Software simulations were applied to test if there was a positive interaction with TNFR1 [37]. […] A promising solubility is conducive to the development of drugs.
Molecule,effect on pro-inflammatory cytokines [1],"solubility in PBS ([2]; 1 × phosphate buffer saline (PBS) (pH 7.1), lyophilized powder, qualitative)","solubility in DMSO ([2]; dimethyl sulfoxide (DMSO), lyophilized powder, qualitative)","solubility (overall) ([2]; dissolution test, in words)","solubility in ultrapure water ([2]; ultrapure water, lyophilized powder, qualitative)"
Cathelicidin-BF,can inhibit pro-inflammatory cytokines,–,–,–,–
CSCC[C@H](NC(=O)[C@H](CCCNC(=N)N)NC(=O)CNC(=O)[C@H](CCCNC(=N)N)NC(=O)[C@H](CC(C)C)NC(=O)[C@@H](NC(=O)[C@H](CC(C)C)NC(=O)[C@H](CO)NC(=O)[C@@H](N)CC(N)=O)C(C)C)C(=O)N[C@@H](CCCNC(=N)N)C(=O)N[C@@H](CC(=O)O)C(=O)N[C@H](C(=O)N[C@@H](CCCCN)C(=O)N[C@H](C(=O)N[C@@H](CCCNC(=N)N)C(=O)N[C@@H](CC(=O)O)C(=O)N[C@@H](CC(=O)O)C(=O)NCC(=O)N[C@@H](CCCNC(=N)N)C(=O)N[C@@H](CCCCN)C(=O)N[C@@H](CO)C(=O)N1CCC[C@H]1C(=O)N[C@@H](CO)C(=O)N[C@@H](Cc1c[nH]cn1)C(=O)N[C@@H](Cc1c[nH]cn1)C(=O)N[C@@H](CO)C(=O)N[C@@H](CCCCN)C(=O)N[C@@H](Cc1ccccc1)C(=O)N[C@@H](CO)C(=O)NCC(=O)NCC(=O)N[C@H](C(=O)N[C@@H](CCCNC(=N)N)C(=O)N[C@@H](CC(N)=O)C(=O)N[C@@H](Cc1c[nH]c2ccccc12)C(=O)N[C@@H](CCC(N)=O)C(=O)N[C@@H](CCCCN)C(=O)N[C@@H](CC(C)C)C(=O)N[C@H](C(=O)N[C@@H](CCCCN)C(=O)N[C@@H](CC(C)C)C(=O)O)C(C)C)[C@@H](C)O)C(C)C)C(C)C [DAvp-1],–,could be dissolved,could be dissolved,good solubility,could be dissolved
